# ChEMBL document CHEMBL3992552, “Mechanisms of action and structure-activity relationships of cytotoxic flavokawain derivatives” (Bioorg Med Chem, 2017)
# Active and inactive are the calls of the source. The rule behind the calls is not given here.
# Tests used:
# [1] = system: Caco-2; assay: Cell cycle arrest in human Caco2 cells assessed as mitotic index at 25 uM measured after 48 hrs by Hoechst staining based fluorescence assay (reference value: 3.6); type: functional
# [2] = system: MCF7; assay: Induction of apoptosis in human MCF7 cells harboring wild-type p53 assessed as increase in early apoptosis at 2 times IC50 after 24 hrs by YoPro/propidium iodide/Hoechst staining based assay; type: functional, cell-based
# [3] = system: MDA-MB-231; assay: Induction of apoptosis in human MDA-MB-231 cells harboring p53 mutant assessed as increase in cleaved caspase3 at 2 times IC50 after 24 hrs by Hoechst staining based assay; type: functional, cell-based
# [4] = system: PC-3; assay: Cell cycle arrest in human PC3 cells harboring p53 mutant assessed as mitotic index at 10 uM measured after 48 hrs by Hoechst staining based fluorescence assay (reference value: 2.5); type: functional
# [5] = system: MDA-MB-231; assay: Cell cycle arrest in human MDA-MB-231 cells assessed as accumulation at M phase by Hoechst staining based fluorescence assay; type: functional
# [6] = system: PC-3; assay: Cell cycle arrest in human PC3 cells harboring p53 mutant assessed as accumulation at S phase at 10 uM measured after 48 hrs by Hoechst/BrdU staining based fluorescence assay (reference value: 40.8%); type: functional
# [7] = system: HCT-116; assay: Cell cycle arrest in human HCT116 cells harboring wild-type p53 assessed as mitotic index at 10 uM measured after 48 hrs by Hoechst staining based fluorescence assay (reference value: 2.3); type: functional
# [8] = system: HCT-116; assay: Induction of apoptosis in human HCT116 cells harboring wild-type p53 assessed as increase in late apoptosis at 2 times IC50 after 48 hrs by YoPro/propidium iodide/Hoechst staining based assay; type: functional, cell-based
# [9] = system: PC-3; assay: Induction of apoptosis in human PC3 cells harboring p53 mutant assessed as upregulation of cyclinB1 after 48 hrs by Hoechst staining based assay; type: functional, cell-based
# [10] = system: NCI-H727; assay: Cell cycle arrest in human NCI-H727 cells harboring p53 mutant assessed as mitotic index at 10 uM measured after 48 hrs by Hoechst staining based fluorescence assay (reference value: 1.1); type: functional
# [11] = Selectivity index, ratio of IC50 for human fibroblasts to IC50 for human MDA-MB-231 cells
# [12] = Selectivity index, ratio of IC50 for human fibroblasts to IC50 for human MCF7 cells
# [13] = system: Caco-2; assay: Cytotoxicity against human Caco2 cells assessed as cell survival at 50 uM after 48 hrs by Hoechst 33342 staining based assay relative to control; type: functional; settings: Caco-2, 48 h, read-out: Survival
# [14] = system: HaCaT; assay: Cell cycle arrest in human HaCaT cells harboring […] p53 assessed as accumulation at S phase at 25 uM measured after 48 hrs by Hoechst/BrdU staining based fluorescence assay (reference value: 52.3%); type: functional
# [15] = system: PC-3; assay: Induction of apoptosis in human PC3 cells harboring p53 mutant assessed as increase in early apoptosis at 2 times IC50 after 48 hrs by YoPro/propidium iodide/Hoechst staining based assay; type: functional, cell-based
# [16] = system: Caco-2; assay: Cytotoxicity against human Caco2 cells assessed as cell viability after 48 hrs by Hoechst 33342 staining based assay; type: functional; settings: Caco-2, 48 h
# [17] = system: Caco-2; assay: Cell cycle arrest in human Caco2 cells assessed as mitotic index at 10 uM measured after 48 hrs by Hoechst staining based fluorescence assay (reference value: 3.6); type: functional
# [18] = Selectivity index, ratio of IC50 for human fibroblasts to IC50 for human HCT116 cells
# [19] = system: MCF7; assay: Induction of apoptosis in human MCF7 cells harboring wild-type p53 assessed as increase in late apoptosis at 2 times IC50 after 24 hrs by YoPro/propidium iodide/Hoechst staining based assay; type: functional, cell-based
# [20] = system: MDA-MB-231; assay: Induction of apoptosis in human MDA-MB-231 cells harboring p53 mutant assessed as upregulation of cyclinB1 after 18 hrs by Hoechst staining based assay; type: functional, cell-based
# [21] = system: NCI-H727; assay: Cytotoxicity against human NCI-H727 cells assessed as cell viability after 48 hrs by Hoechst 33342 staining based assay; type: functional; settings: NCI-H727, 48 h
# [22] = system: HaCaT; assay: Cell cycle arrest in human HaCaT cells harboring […] p53 assessed as mitotic index at 25 uM measured after 48 hrs by Hoechst staining based fluorescence assay (reference value: 2.6); type: functional
# [23] = system: HCT-116; assay: Induction of apoptosis in human HCT116 cells harboring wild-type p53 assessed as increase in cleaved caspase3 at 2 times IC50 after 48 hrs by Hoechst staining based assay; type: functional, cell-based
# [24] = system: Huh-7; assay: Cell cycle arrest in human HuH7 cells assessed as mitotic index at 25 uM measured after 48 hrs by Hoechst staining based fluorescence assay (reference value: 2.2); type: functional
# [25] = Selectivity index, ratio of IC50 for human fibroblasts to IC50 for human NCI-H727 cells
# [26] = system: PC-3; assay: Induction of apoptosis in human PC3 cells harboring p53 mutant assessed as increase in late apoptosis at 2 times IC50 after 48 hrs by YoPro/propidium iodide/Hoechst staining based assay; type: functional, cell-based
# [27] = system: HCT-116; assay: Induction of apoptosis in human HCT116 cells harboring wild-type p53 assessed as increase in early apoptosis at 2 times IC50 after 48 hrs by YoPro/propidium iodide/Hoechst staining based assay; type: functional, cell-based
# [28] = system: PC-3; assay: Cytotoxicity against human PC3 cells assessed as cell viability after 48 hrs by Hoechst 33342 staining based assay; type: functional; settings: PC-3, 48 h
# [29] = Cytotoxicity against human fibroblasts assessed as cell survival at 50 uM after 48 hrs by Hoechst 33342 staining based assay relative to control; parameters: species or system Fibroblast; settings: read-out: Survival
# [30] = system: HCT-116; assay: Cell cycle arrest in human HCT116 cells assessed as accumulation at G1/S phase by Hoechst staining based fluorescence assay; type: functional
# [31] = system: Huh-7; assay: Cell cycle arrest in human HuH7 cells assessed as accumulation at S phase at 25 uM measured after 48 hrs by Hoechst/BrdU staining based fluorescence assay (reference value: 44%); type: functional
# [32] = system: Huh-7; assay: Cytotoxicity against human HuH7 cells assessed as cell survival at 50 uM after 48 hrs by Hoechst 33342 staining based assay relative to control; type: functional; settings: Huh-7, 48 h, read-out: Survival
# [33] = system: MDA-MB-231; assay: Cell cycle arrest in human MDA-MB-231 cells harboring p53 mutant assessed as accumulation at S phase at 25 uM measured after 48 hrs by Hoechst/BrdU staining based fluorescence assay (reference value: 42.2%); type: functional
# [34] = system: Huh-7; assay: Cell cycle arrest in human HuH7 cells assessed as accumulation at S phase at 10 uM measured after 48 hrs by Hoechst/BrdU staining based fluorescence assay (reference value: 44%); type: functional
# [35] = system: MDA-MB-231; assay: Cell cycle arrest in human MDA-MB-231 cells harboring p53 mutant assessed as mitotic index at 25 uM measured after 48 hrs by Hoechst staining based fluorescence assay (reference value: 2.1); type: functional
# [36] = system: MCF7; assay: Induction of apoptosis in human MCF7 cells harboring wild-type p53 assessed as upregulation of cyclinB1 measured after 18 hrs by Hoechst staining based assay; type: functional, cell-based
# [37] = system: MDA-MB-231; assay: Induction of apoptosis in human MDA-MB-231 cells harboring p53 mutant assessed as increase in early apoptosis at 2 times IC50 after 24 hrs by YoPro/propidium iodide/Hoechst staining based assay; type: functional, cell-based
# [38] = Selectivity index, ratio of IC50 for human fibroblasts to IC50 for human HaCaT cells
# [39] = system: PC-3; assay: Cell cycle arrest in human PC3 cells assessed as accumulation at M phase by Hoechst staining based fluorescence assay; type: functional
Compound,Activity_index [1],Activity [2],Activity_index [4],Activity [6] [%],Activity_index [7],Activity [8],Activity [9],Ratio IC50 [12],viability at 50 µM [13] [%],Activity [14],Activity [15],IC50 [16] [µM],Activity_index [17],Ratio IC50 [18],Activity [19],IC50 [21] [µM],Activity [23],Activity [26],Activity [27],IC50 [28] [µM],further results
COc1cc(O)c(C(=O)/C=C/c2ccccc2)c(OC)c1 [FLAVOKAWAIN B],19.3,Active,4.2,35,1.1,Active,Active,1.7,1,21%,Active,9.9,9.7,3.5,Active,11.3,Active,Active,Active,9.1,"Activity [3]: Active; Activity [5]: Active; Activity_index [10]: 0.8; Ratio IC50 [11]: 1.6; Activity [20]: Active; Activity_index [22]: 0.9; Activity_index [24]: 1.7; Ratio IC50 [25]: 2.3; viability at 48 h, 50 µM [29]: 32%; Activity [30]: Active; Activity [31]: 30%; viability at 50 µM [32]: 10%; Activity [33]: 40%; Activity [34]: 55%; Activity_index [35]: 6.8; Activity [36]: Active; Activity [37]: Active; Ratio IC50 [38]: 1.9"
COc1cc(O)c(C(=O)/C=C/c2ccccc2OC)c(OC)c1,21.5,Active,2.9,36,1.2,Active,Active,3.5,43,29%,Active,10,6.8,4,Active,11,Active,Active,Active,9.6,"Activity_index [10]: 1; Activity [39]: Active; Activity_index [22]: 8.4; Activity [24]: inactive; Ratio IC50 [25]: 3.3; viability at 48 h, 50 µM [29]: 71%; Activity [30]: Active; Activity [31]: inactive; viability at 50 µM [32]: 39%; Activity [33]: inactive; Activity [34]: inactive; Activity [35]: inactive; Activity [36]: Active; Ratio IC50 [38]: 3.3"
COc1cc(O)c(C(=O)/C=C/c2ccc(F)cc2)c(OC)c1,24.8,Active,2.9,37,1.2,Active,Active,>5.7,45,inactive,Active,9.2,6.3,>4,Active,> 20,Active,Active,Active,13.2,"Activity [10]: inactive; Activity [39]: Active; Activity [22]: inactive; Activity [24]: inactive; viability at 48 h, 50 µM [29]: > 80%; Activity [30]: Active; Activity [31]: inactive; viability at 50 µM [32]: 66%; Activity [33]: inactive; Activity [34]: inactive; Activity [35]: inactive; Activity [36]: Active"
COc1cc(O)c(C(=O)/C=C/c2ccccc2SC)c(OC)c1,21.9,Active,4.4,35,0.8,Active,Active,2.3,23,30%,Active,9.6,6,3.6,Active,9,Active,Active,Active,8.7,"Activity_index [10]: 0.9; Activity [39]: Active; Activity_index [22]: 7.8; Activity_index [24]: 5.3; Ratio IC50 [25]: 4; viability at 48 h, 50 µM [29]: 65%; Activity [30]: Active; Activity [31]: 37%; viability at 50 µM [32]: 38%; Activity [33]: inactive; Activity [34]: 50%; Activity [35]: inactive; Activity [36]: Active; Ratio IC50 [38]: 3.4"
